This test has as its target T1, caspase-3 (Homo sapiens, UniProt P42574).
T1 construct: host or cells: HFDPC-c cells (follicle dermal papilla cells)
T1 sequence (P42574 29-175 limits assumed): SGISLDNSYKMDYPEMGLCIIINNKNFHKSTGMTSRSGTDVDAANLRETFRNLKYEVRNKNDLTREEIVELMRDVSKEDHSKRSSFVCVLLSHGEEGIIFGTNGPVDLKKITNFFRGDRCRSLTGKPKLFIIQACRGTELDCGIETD
T1 sequence (P42574 176-277 limits assumed): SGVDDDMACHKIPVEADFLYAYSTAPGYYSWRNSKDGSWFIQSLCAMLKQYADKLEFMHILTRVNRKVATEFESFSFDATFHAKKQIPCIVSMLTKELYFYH
As to the kind of experiment: Caspase-3 activity (ApoTarget Caspase-3/CPP32 colorimetric test, DEVD-pNA) in HFDPC-c cells with Staurosporine-induced apoptosis. Type of test: cell-based. The conditions noted are these: for % Inhibition of caspase activity / % Caspase-3 activity: Staurosporine 1 μM, 24 h, number in label = concentration [μM] per Table A; for % Inhibition of caspase activity: ST alone = 0%; for % Caspase-3 activity: related to 100% activity for 1 μM Staurosporine. On the procedure: The activity of caspase-3 has been assessed by using the colorimetric test ApoTarget™Caspase-3/CPP32 with DEVD-pNA as the substrate (BioSource International, Camarillo, Calif.). DEVD-pNA consists of a chromophore group (p-nitroanilide (p-NA) and a synthetic tetrapeptide (DEVD-Asp-Glu-Val-Asp) that represents the consensus sequence for the proteolytic cut catalyzed by caspase-3. The test was carried out by following the specifications indicated by the manufacturer in detail, using an equal amount of total protein (200 μg) for every sample.
Every sample was tested in duplicate. The activity was assessed by measuring the absorbance at 405 nm (in the graphics, ABS 405 nm) with an automatic spectrometer for 96-well plates (MPT Reader DV990 BVG) that carries out a double reading for every well.
Cellular lysis is a technique applied to extract all of the proteins in the cultured cells to be analyzed. Various lysis protocols exist: the one used in the experimental tests described here consists of the use of a highly denaturing buffer (lysis buffer, provided within the kit for the test of the caspase-3 activity). After incubation with the various active ingredients, the lysis buffer is placed onto the cell plates, a scraper is then used directly on the layer of cells to help collect the largest quantity possible. The protein extraction is then improved with incubation on ice (4° C.) for 10 minutes. The cellular debris are precipitated with centrifugation at 10,000×g for 1 minute. The lysates are retrieved and frozen at −80° C.
The activity of caspase-3 was assessed by using the colorimetric assay ApoTarget™Caspase-3/CPP32, and the concentration of the protein was assessed by using the Lowry-Ciocalteau method and a BSA standard as described above.
The incubation was also maintained for 24 hours in this case.
At the end of the incubation the plates in which the cells were cultivated were laid out on a bed of ice, washed once in cold PBS and incubated in the lysis buffer. After the lysis, the protein assay and the caspase-3 activity test was carried out.

The structures appear in SMILES notation.

For the compound `C[C@@H]1O[C@@H](OC[C@H]2O[C@@H](Oc3c(-c4ccc(O)c(O)c4)oc4cc(O)cc(O)c4c3=O)[C@H](O)[C@@H](O)[C@@H]2O)[C@H](O)[C@H](O)[C@H]1O` [Example R2, Rutin], the “% Inhibition of caspase activity” value was 32.10% and the “% Caspase-3 activity” value was 67.90%. Further, under “listed as R20”, the “% Inhibition of caspase activity” value was 46.27% and the “% Caspase-3 activity” value was 53.73%.

For the compound `CN[C@@H]1C[C@H]2O[C@@](C)([C@@H]1OC)n1c3ccccc3c3c4c(c5c6ccccc6n2c5c31)C(=O)NC4` [Staurosporine, reference compound], the “induction of apoptosis (caspase-3 activity)” value (1 μM, 24-hour incubation, FIG. 1) is “increase in caspase-3 activity”.

As to `CC1=C(/C=C/C(C)=C/C=C/C(C)=C/C=C/C=C(C)/C=C/C=C(C)/C=C/C2=C(C)C[C@@H](O)CC2(C)C)C(C)(C)C[C@H](O)C1` [Example Z0.4, Zeaxanthin], the “% Inhibition of caspase activity” value was found to be 29.00% and the “% Caspase-3 activity” value is reported as 71.00%. Further, where the note is “listed as Z4”, the “% Inhibition of caspase activity” value is listed as 13.20% and the “% Caspase-3 activity” value came to 86.80%.

For `Cl.Cl.Cl.NCCCCNCCCN` [Example S0.1, Spermidine trihydrochloride], the “% Inhibition of caspase activity” value amounted to 21.64% and the “% Caspase-3 activity” value is reported as 78.36%.
